According to patent US9999760B2, “DVDMS sensitizer for cancer sonodynamic therapy” (priority 2015, dated 2018):

Legend:
[1] = system: leukemia cells (K562, U937); test: MTT assay of cytotoxicity and sonotoxicity in leukemia cells; type: cell-based
Procedure: (§1) Two kinds of leukemia cells (K562, U937) as main tumor cell models and cells (peripheral blood mononuclear cells, spleen lymphocytes) separated from healthy ICR mice as normal cell models were used. The multivolume spectrophotometer system and fluorescence spectrophotometer were used to determine the spectral characteristics of DVDMS. The uptake of DVDMS by tumor cells and normal cells was measured by flow cytometry. The MTT assay was used to examine the cytotoxicity and sonotoxicity of DVDMS.

[2] = system: peripheral blood mononuclear cells, spleen lymphocytes; test: MTT assay of cytotoxicity in normal cells; type: cell-based, ICR mice
Procedure: as §1

[3] = system: tumor cells (K562, U937) and normal cells; test: Cellular uptake by flow cytometry in tumor cells and normal cells; type: cell-based; conditions: tumor cells compared with normal healthy cells
Procedure: as §1

[4] = Spectral characteristics (absorption and fluorescence emission spectra); type: physicochemical
Procedure: as §1

[5] = system: cancerous and normal cells; test: Autofluorescence intensity and singlet oxygen production in cells; type: cell-based; conditions: compared with other photosensitizers / Photofrin
ECA-109 cells = test: Sonodynamic therapy in ECA-109 cells; type: cell-based
Source text: Abundant intracellular reactive oxygen species (ROS) was found in the SDT groups, and the cytotoxicity induced by SDT was effectively remitted by ROS scavengers. […] Release of cytochrome C, an increased rate of apoptosis, and activated apoptosis protein were detected in the SDT group. In addition, relatively severe cell damage was observed on scanning electron microscopy after treatment with DVDMS and SDT.

sarcoma 180 solid tumors = test: Sonodynamic antitumor effect in mice bearing sarcoma 180 solid tumors; type: in vivo
Procedure: In order to determine the optimum timing of ultrasound exposure after administration of DVDMS, a three-dimensional optical imaging system (IVIS spectrum) was used to observe the biodistribution of DVDMS in S180 tumor. The antitumor effects were estimated by the tumor inhibition ratio (volume and weight) after sonodynamic therapy. […] A significant synergistic effect of ultrasound combined with DVDMS was obtained when the load power indicated 4 W and DVDMS dose was above 2 mg/kg. […] Conclusions: DVDMS is a potential sensitizer for sonodynamic cancer therapy. The antitumor effect of ultrasound could be enhanced in the presence of DVDMS, which might be involved in a sonochemical mechanism.

4T1 mammary cancer = test: Photodynamic therapy in 4T1 mammary cancer-bearing mice; type: in vivo; conditions: for tumor volume inhibition ratio: 17th day
Procedure: At the beginning, we have pointed out that DVDMS is an active component isolated from Photofrin™ II. So it would be very interesting to compare the in vivo anti-cancer efficacy of DVDMS-PDT with PHOTOFRIN™-PDT (PF-PDT).
Representative mice were photographed at 6, 12, or 18 days after the corresponding treatments. […] However, tumor size decreased in a dose-dependent manner with increasing DVDMS and light exposure.
The tumor volume and tumor weight results were evaluated for each group.
On the 19th day, the tumors were photographed and the average tumor weight in each group was calculated.

brain stem tumor = test: Clinical cases of SDT for tumors of the brain stem; type: in vivo, patient
Procedure: Below are two typical clinical cases where SDT was selected for treatment of tumors of the brain stem. For Photofrin™ the dosage was 2 mg/kg of body weight. For DVDMS, the dosage was 0.2 mg/kg of body weight, a factor of ten less than Photofrin™. The ultrasound frequency was 0.5 to 1 MHz and the ultrasound power was 0.1 W/cm^2 to 1.5 W/cm^2. Ultrasound treatment is delayed after injection to permit absorbance of the sonodynamic compound into the tumor or other hyperproliferative tissue. In the case of Photofrin™ the delay is extensive, e.g. 20 to 30 hours. […] Due to differential absorption times into tumor, patient was intravenously injected with Photofrin™ 24 hours before ultrasound treatment and DVDMS was intravenously injected two hours prior to ultrasound treatment. Treatment occurred each time for 20-30 minutes and total time to treat three times was 72 hours.

skin = test: Dermatological phototoxicity and skin retention after treatment; parameters: species or system patient; conditions: in vivo

SMILES: C=Cc1c(C)c2cc3nc(cc4[nH]c(cc5nc(cc1[nH]2)C(C)=C5C(C)OC(C)C1=C(C)c2cc5[nH]c(cc6nc(cc7[nH]c(cc1n2)c(C)c7CCC(=O)[O-])C(CCC(=O)[O-])=C6C)c(C)c5C=C)c(C)c4CCC(=O)[O-])C(CCC(=O)[O-])=C3C.[Na+].[Na+].[Na+].[Na+] (stereo not shown) [DVDMS]
- sonotoxicity: cell-damaging effect of ultrasound in the presence of DVDMS ([1]; MTT, under appropriate conditions): significantly enhanced
- cytotoxicity by the MTT method ([1]; without ultrasound): dose dependent
- cytotoxicity to normal cells [2]: little cytotoxicity
- cellular uptake and accumulation [3]: quick cellular uptake and selective accumulation in tumor cells
- absorption spectra, maximum peak [4]: 359 nm
- fluorescence emission [4]: 642 nm
- autofluorescence intensity [5]: significantly higher
- singlet oxygen production efficiency [5]: significantly higher
- subcellular location (ECA-109 cells): mainly to the mitochondria
- SDT cytotoxicity (ECA-109 cells; compared with hematoporphyrin): more cytotoxic
- tumor weight inhibition ratio (sarcoma 180 solid tumors; DVDMS alone, no ultrasound): 23.15%
- biodistribution (IVIS spectrum optical imaging) (sarcoma 180 solid tumors; S180 tumor-bearing mice): preferential localization in tumors, but a low accumulation in most normal tissues
- metastasis (sarcoma 180 solid tumors; SDT-treated mice compared with the control group): no metastasis occurred
- tumor volume inhibition ratio (sarcoma 180 solid tumors; day 14 after DVDMS-SDT): 56.27%
- tumor weight inhibition ratio (sarcoma 180 solid tumors; synergistic treatment (ultrasound combined with DVDMS)): 55.37%
- tumor size versus PF group (4T1 mammary cancer; 2 mg/kg DVDMS vs 10 mg/kg PF, same light exposure 100 J/cm^2): less than in the 10 mg/kg PF group
- tumor volume inhibition ratio (4T1 mammary cancer; 1 mg/kg DVDMS+50 J/cm^2, vs control): 38.51%
- tumor volume inhibition ratio (4T1 mammary cancer; 2 mg/kg DVDMS alone, vs control): 7.42%
- tumor volume inhibition ratio (4T1 mammary cancer; 2 mg/kg DVDMS+50 J/cm^2, vs control): 59.23%
- tumor volume inhibition ratio (4T1 mammary cancer; 2 mg/kg DVDMS+100 J/cm^2, vs control): 66.97%
- tumor volume inhibition ratio (4T1 mammary cancer; 2 mg/kg DVDMS+150 J/cm^2, vs control): 78.12%
- tumor volume inhibition ratio (4T1 mammary cancer; group (2) mg/kg DVDMS+50 J/cm^2 (dose not given), vs control): 18.61%
- survival of tumor-bearing mice (4T1 mammary cancer; DVDMS-PDT compared to control and DVDMS-only groups (p<0.01)): significantly prolonged
- survival of tumor-bearing mice versus PF-PDT (4T1 mammary cancer; DVDMS-PDT vs PF-PDT (p<0.05)): more effective than PF-PDT
- tumor volume and tumor weight (4T1 mammary cancer; nineteen days after treatment, DVDMS plus light exposure vs control or DVDMS alone): significantly lower
- time to what appears to be complete remission (brain stem tumor; SDT, 0.2 mg/kg): ≤ 30 days
- absorbance into the tumor after injection (brain stem tumor; compared with Photofrin): absorbance is much quicker
- efficacy in sonic treatment relative to Photofrin II (brain stem tumor; injected into a host): about ten times higher
- cranial MRI on review after SDT treatment (brain stem tumor; patient, 0.2 mg/kg): tumor was absorbed, brain stem edema was significantly reduced
- head MRI 30 days after treatment (brain stem tumor; patient, 0.2 mg/kg): ventral brain stem tumor has disappeared
- dermatological phototoxicity (skin): lacking dermatological phototoxicity
